Active and inactive are the calls of the source. No cut-off for these calls is given here.
Experiments:
[1] = system: Pseudomonas aeruginosa PA14; experiment: Inhibition of Pseudomonas aeruginosa PA14 PqsH transposon mutant assessed as extracellular level of HHQ at 250 uM after 16 hrs
[2] = molecular target: T1, 2-heptyl-4(1H)-quinolone synthase PqsD (Pseudomonas aeruginosa) (UniProt A0A0C7ACN7); experiment: Inhibition of Pseudomonas aeruginosa recombinant PqsD expressed in Escherichia coli BL21 (lambdaDE3) using ACoA/beta-ketodecanoic acid as substrate at 50 uM after 10 mins
T1 sequence (whole entry): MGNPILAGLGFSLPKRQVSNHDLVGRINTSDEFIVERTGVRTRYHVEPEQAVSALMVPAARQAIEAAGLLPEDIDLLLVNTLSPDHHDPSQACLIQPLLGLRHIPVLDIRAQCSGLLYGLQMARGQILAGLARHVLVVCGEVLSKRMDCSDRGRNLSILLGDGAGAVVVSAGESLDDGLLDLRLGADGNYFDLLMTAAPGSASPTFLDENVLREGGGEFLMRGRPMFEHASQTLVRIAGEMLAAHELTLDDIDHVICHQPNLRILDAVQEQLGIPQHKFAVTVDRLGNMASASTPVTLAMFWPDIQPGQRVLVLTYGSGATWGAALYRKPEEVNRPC

[3] = system: Pseudomonas aeruginosa PA14; experiment: Inhibition of Pseudomonas aeruginosa PA14 PqsH transposon mutant assessed as extracellular level of HHQ after 16 hrs
[4] = molecular target: T2, 2-heptyl-4(1H)-quinolone synthase PqsD (Pseudomonas aeruginosa, UniProt A0A0C7ACN7); experiment: Inhibition of Pseudomonas aeruginosa recombinant PqsD expressed in Escherichia coli BL21 (lambdaDE3) using ACoA/beta-ketodecanoic acid as substrate after 10 mins
T2 sequence (A0A0C7ACN7 whole entry): T1 sequence (whole entry)

[5] = molecular target: T1, 2-heptyl-4(1H)-quinolone synthase PqsD (Pseudomonas aeruginosa); experiment: Binding affinity to Pseudomonas aeruginosa recombinant his6-tagged PqsD expressed in Escherichia coli BL21 (lambdaDE3) at 250 to 500 uM by SPR analysis
[6] = system: Pseudomonas aeruginosa PA14; experiment: Inhibition of Pseudomonas aeruginosa PA14 PqsH transposon mutant assessed as extracellular level of HHQ at 500 uM after 16 hrs
[7] = molecular target: T1, 2-heptyl-4(1H)-quinolone synthase PqsD (Pseudomonas aeruginosa); experiment: Binding affinity to Pseudomonas aeruginosa recombinant his6-tagged PqsD expressed in Escherichia coli BL21 (lambdaDE3) using AcoA as substrate at 250 to 500 uM incubated for 40 mins prior to compound addition followed by wash out for 30 mins by SPR analysis

SMILES | inhibition [1] | inhibition [2] | IC50 [4] | other results
O=C(O)/C=C/c1ccc(O)cc1 | < 10% | 30% | – | –
COC(=O)CCCc1ccc(O)c(O)c1 | – | – | 7.9 µM | Activity [3]: 18 µM; Activity [5]: Active
COC(=O)CCc1ccc(O)cc1 | – | < 10% | – | –
CNC(=O)CCc1ccc(O)c(O)c1 | < 10% | – | 20 µM | –
O=C(O)/C=C/c1ccoc1 | – | 12% | – | –
COC(=O)Cc1ccc(O)c(O)c1 | – | – | 23 µM | Activity [3]: 24 µM
COC(=O)/C=C/c1ccc(F)c(F)c1 | < 10% | < 10% | – | –
COc1cc(/C=C/C(=O)O)ccc1O | – | < 10% | – | –
O=C(O)/C=C/c1ccsc1 | < 10% | 12% | – | –
CC(C)OC(=O)CCc1ccc(O)c(O)c1 | – | – | 8.6 µM | Activity [3]: 16 µM; Activity [5]: Active
O=C(CCc1ccc(O)c(O)c1)OCc1ccccc1 | < 10% | – | 5.9 µM | Activity [5]: Active
COC(=O)CCc1ccc2c(c1)OCO2 | < 10% | 37% | – | –
O=C(O)/C=C/c1ccccc1 | < 10% | 33% | – | –
O=C(O)/C=C/c1ccc(O)c(O)c1 | – | 26% | – | inhibition [6]: 10%
COC(=O)CCc1ccc(O)c(O)c1 | – | – | 23 µM | Activity [3]: 17 µM
COC(=O)/C=C/c1ccc(O)cc1 | < 10% | 22% | – | Activity [7]: inactive
COC(=O)CCc1ccc(C)cc1 | – | < 10% | – | –
COC(=O)/C=C/c1ccccc1 | – | < 10% | – | Activity [7]: inactive
COC(=O)CCc1ccc([N+](=O)[O-])cc1 | – | < 10% | – | –
O=C(O)/C=C/c1ccc(F)c(F)c1 | – | 18% | – | –
COC(=O)CCc1ccc(N)cc1 | – | < 10% | – | –
COC(=O)/C=C/c1ccc(O)c(O)c1 [METHYLCAFFEATE] | – | – | 51 µM | Activity [3]: 31 µM; Activity [7]: inactive
CCOC(=O)CCc1ccc(O)c(O)c1 | – | – | 14 µM | Activity [3]: 17 µM
O=C(O)CCc1ccc(O)c(O)c1 [DIHYDROCAFFEIC ACID] | < 10% | – | 27 µM | –
O=C(O)/C=C/c1cccc(O)c1 | – | < 10% | – | –
